Laboratory results as given in US8470765B2, “Polypeptides and antibacterial or antiseptic use of same” (AnGes MG, Inc., priority 2009, dated 2013).
Converted amounts (≈) assume the structure as drawn. Read-outs that look alike come from different tables or passages of the source. No end group written: not given here.

What was measured:
[1] = tested on: Pseudomonas aeruginosa 1 (clinical strain); experiment: microbe, parasite or virus in culture; conditions: for MIC: Pseudomonas aeruginosa, read-out: MIC Pseudomonas aeruginosa 1
Protocol: (§1) Bacteria (Escherichia coli ATCC 25922, Pseudomonas aeruginosa ATCC 27853, Staphylococcus aureus ATCC29213, Klebsiella pneumoniae JCM 1662, Enterobacter cloacae JCM 1232, Enterobacter aerogenes JCM 1235 and Staphylococcus epidermidis JCM 2414) were inoculated to Mueller-Hinton broth: MHB or LB medium, and cultured at a temperature and period suited for each strain. From the thus obtained colonies, each strain was inoculated to a fresh liquid medium and cultured for 16 to 20 hours. Then an aliquot having a volume (10 to 50 appropriate to each strain was inoculated to a fresh liquid medium and cultured for 4 to 6 hours, followed by the measurement of the absorbance at 600 nm. After comparing the turbidity with McFarland #0.5, the resultant was diluted with a medium. Each strain was added to about 10^5 CFU/mL (final concentration).
(§2) Further, the antibacterial activities against the clinical strains collected and isolated from infected patients were also examined. The tests were carried out for two methicillin-resistant Staphylococcus (MRSA) (MRSA (i) and (ii)), two methicillin-sensitive Staphylococcus (MSSA) (MSSA (i) and (ii)), five Pseudomonas aeruginosa, Pseudomonas aeruginosa 1, Pseudomonas aeruginosa 6, Pseudomonas aeruginosa 8. Pseudomonas aeruginosa 9 and Pseudomonas aeruginosa 12, totally 9 clinical strains. The MRSA and MSSA clinical strains were tested by the same method as Staphylococcus aureus ATCC29213, and Pseudomonas clinical strains were tested by the same method as Pseudomonas aeruginosa ATCC 27853.
(§3) Each of the peptide solutions to be tested was diluted with MHB to obtain a solution of 128 μg/mL. This solution was serially diluted with the medium to prepare peptide-containing media having concentrations of 128, 64, 32, 16, 8.0, 4.0 and 2.0 μg/mL respectively. […] By dilution with sterilized purified water to 1.0 mg/mL, positive control-containing media having concentrations of 16, 8, 4, 2, 1.0, 0.25, 0.12 and 0.06 μg/mL, respectively for TOB; 0.5, 0.12 and 0.06 μg/mL, respectively, for OX; and 16, 8, 4, 2, 1.0, 0.25, 0.12, 0.06, 0.06, 0.03 and 0.008 μg/mL, respectively, for MEPM, were prepared.
(§4) To a 96-well microtiter plate, 0.1 mL of the inoculation solution and 0.1 mL of the peptide- or positive control-containing medium having the respective concentration were added, and cultured at 37° C. for 16 to 24 hours (or a time period suited for the growth of the respective strain). The well not containing the sample was used as a negative control. After the culturing, the growth was visually observed, and the minimum concentration at which the growth was inhibited was defined as the minimum growth inhibition concentration (MIC).
(§5) The medium used in this test for bacteria was Mueller-Hinton broth. Independent experiments were carried out twice or more for each strain.

[2] = tested on: Pseudomonas aeruginosa 12 (clinical strain); experiment: microbe, parasite or virus in culture; conditions: for MIC: Pseudomonas aeruginosa, read-out: MIC Pseudomonas aeruginosa 12
Protocol: as §1, §2, §3, §4, §5

[3] = tested on: Pseudomonas aeruginosa 6 (clinical strain); experiment: microbe, parasite or virus in culture; conditions: for MIC: Pseudomonas aeruginosa, read-out: MIC Pseudomonas aeruginosa 6
Protocol: as §1, §2, §3, §4, §5

[4] = tested on: Pseudomonas aeruginosa 9 (clinical strain); experiment: microbe, parasite or virus in culture; conditions: for MIC: Pseudomonas aeruginosa, read-out: MIC Pseudomonas aeruginosa 9
Protocol: as §1, §2, §3, §4, §5

[5] = tested on: methicillin-resistant Staphylococcus (MRSA) MRSA(ii); experiment: organism not typed; conditions: for MIC: read-out: MIC MRSA(ii)
Protocol: as §1, §2, §3, §4, §5

[6] = tested on: Escherichia coli ATCC 25922; experiment: ATP Assay (viability at 3 hours), Table 6; type: cell-based; conditions: for viability at 10 µg/mL: ATCC25922, 3 h, read-out: Escherichia coli ATP (viability, relative value to negative control); for Escherichia coli ATP (viability, relative value to negative control): 3 h, 5 μg/mL
In short: (§6)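 Log-phase bacteria at about 10^5 CFU/mL final in Mueller-Hinton broth were exposed 3 h at 37 °C to peptide (solution prepared at 10 μg/mL before 1:1 mixing with inoculum). ATP (BacTiter-Glo luminescence) relative to untreated wells defined viability; two independent experiments.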

[7] = tested on: Pseudomonas aeruginosa ATCC 27853; experiment: ATP Assay (viability at 3 hours), Table 6; type: cell-based; conditions: for viability at 10 µg/mL: ATCC27853, 3 h, read-out: Pseudomonas aeruginosa ATP (viability, relative value to negative control); for Pseudomonas aeruginosa ATP (viability, relative value to negative control): 3 h, 5 μg/mL
In short: as §6

[8] = tested on: Staphylococcus aureus ATCC29213; experiment: ATP Assay (viability at 3 hours), Table 6; type: cell-based; conditions: for viability at 10 µg/mL: ATCC29213, 3 h, read-out: Staphylococcus aureus ATP (viability, relative value to negative control); for Staphylococcus aureus ATP (viability, relative value to negative control): 3 h, 5 μg/mL
In short: as §6

[9] = tested on: Pseudomonas aeruginosa 8 (clinical strain)
Protocol: as §1, §2, §3, §4, §5

[10] = tested on: Bacillus subtilis NBRC3134
[11] = tested on: Streptococcus pyogenes JCM5674
[12] = tested on: Acinetobacter baumanni JCM6841
[13] = Table 4, clinical strain, first/second value where not identical
[14] = Table 4, two tests, first/second value where not identical
[15] = methicillin-resistant Staphylococcus (ii)

Row | Compound | MIC Pseudomonas aeruginosa 12 [2, 13] | MIC Pseudomonas aeruginosa 9 [4, 13] | MIC Pseudomonas aeruginosa 8 ([9]; 8 (clinical strain)) [µg/mL] | Escherichia coli ATP (viability, relative value to negative control) [6] | Pseudomonas aeruginosa ATP (viability, relative value to negative control) [7] | Staphylococcus aureus ATP (viability, relative value to negative control) [8] | MIC Bacillus subtilis ([10]; NBRC3134) [µg/mL] | MIC Streptococcus pyogenes [11] [µg/mL] | MIC Acinetobacter baumanni ([12]; JCM6841) [µg/mL] | MIC Candida krusei (Candida krusei NBRC1395; NBRC1395) [µg/mL] | MIC Pseudomonas aeruginosa 6 [3, 13] | MIC Pseudomonas aeruginosa 1 [1, 13] | MIC MRSA(ii) [5, 15] [µg/mL] | other results
1 | C[C@@H](O)[C@H]1C(=O)N2C(C(=O)O)=C(S[C@@H]3CN[C@H](C(=O)N(C)C)C3)[C@H](C)[C@H]12 [meropenem, reference compound] |  |  |  |  |  |  |  |  |  |  |  |  |  | MIC [1]: < 4000 µg/mL; MIC [2]: < 4000 µg/mL; MIC [3]: 8 to 16 µg/mL (≈ 0.0209 to 0.0417 mM); MIC [4]: < 4000 µg/mL; MIC [5]: 8 to 16 µg/mL (≈ 0.0209 to 0.0417 mM); viability at 10 µg/mL [6]: 15.3%; viability at 10 µg/mL [7]: 16.1%; viability at 10 µg/mL [8]: 15.7%
2 | NC[C@H]1O[C@H](O[C@H]2[C@H](O)[C@@H](O[C@H]3O[C@H](CO)[C@@H](O)[C@H](N)[C@H]3O)[C@H](N)C[C@@H]2N)[C@H](N)C[C@@H]1O [tobramycin, reference compound] |  |  |  |  |  |  |  |  |  |  |  |  |  | MIC [1]: > 16000 µg/mL; MIC [2]: < 4000 µg/mL; MIC [3]: < 4000 µg/mL; MIC [4]: < 4000 µg/mL; MIC [5]: > 16000 µg/mL; viability at 10 µg/mL [6]: 74.3%; viability at 10 µg/mL [7]: 1.2%; viability at 10 µg/mL [8]: 6.7%
3 | GRLKRMGERLKRKIQKWIRW-NH2 [SRP-15] | 8/16 | 8/64 | 16 | 0.5 | 1.6 | 0.3 | 4 | 16 | 32 | 16 |  |  |  | MIC Pseudomonas aeruginosa 1 ([1]; 1 (clinical strain)): 16 µg/mL; MIC Pseudomonas aeruginosa 6 ([3]; 6 (clinical strain)): 16 µg/mL; MIC MRSA(ii) [5, 13]: 16/32
4 | GRLKRMGKRLKRKIQKWARW-NH2 [SRP-14] | 8/16 | 16/32 | 16 | 1.2 | 1.0 | 0.3 | 4 | 16 | 64 | 32 | 8/16 |  |  | MIC Pseudomonas aeruginosa 1 ([1]; 1 (clinical strain)): 16 µg/mL; MIC MRSA(ii) [5, 13]: 16/32
5 | IFLHRLKRMRKRLKRKLRLW-OH [SRP-7] |  | 64/128 | 32 | 1.6 | 1.0 | 0.2 | 4 | 32 | 128 |  | 16/64 | 32/64 |  | MIC Pseudomonas aeruginosa 12 ([2]; 12 (clinical strain)): 16 µg/mL; MIC Candida krusei (Candida krusei NBRC1395; [14]): 64/32
6 | KLIFLHRLKRELRKRLKRKLR-NH2 [SRP-13] | 8/16 |  | 16 | 2.2 | 2.2 | 2.0 | 4 | 32 |  | 32 | 8/16 | 16/32 | 64 | MIC Pseudomonas aeruginosa 9 ([4]; 9 (clinical strain)): 64 µg/mL; MIC Acinetobacter baumanni [12, 14]: 16/32
7 | KLIFLRELRRLRKRLKRKLR-NH2 [SRP-16] | 8/16 |  | 16 | 0.9 | 1.0 | 0.4 |  | 32 | 128 | 32 |  | 16/32 | 64 | MIC Pseudomonas aeruginosa 6 ([3]; 6 (clinical strain)): 16 µg/mL; MIC Pseudomonas aeruginosa 9 ([4]; 9 (clinical strain)): 64 µg/mL; MIC Bacillus subtilis [10, 14]: 8/4
8 | KNLRRIIRKIIHIIKKYG-NH2 [Ovispirin-1, reference compound] | 16/32 | 32/128 |  |  |  |  | 2 | 32 |  | 16 | 32/64 | 16/64 | 32 | MIC Pseudomonas aeruginosa 8 [9, 13]: 32/64; MIC Acinetobacter baumanni [12, 14]: 4/8
9 | LIFLHRLKRMRKRLKRKLRL-NH2 [SRP-12] |  | 16/64 |  | 6.5 | 1.0 | 0.2 |  |  |  |  | 32/64 | 16/32 |  | MIC Pseudomonas aeruginosa 12 ([2]; 12 (clinical strain)): 16 µg/mL; MIC Pseudomonas aeruginosa 8 [9, 13]: 32/64; MIC MRSA(ii) [5, 13]: 32/64
10 | RLKRMRKRLKRKLRLW-NH2 [SRP-17] | 16/64 | 64/128 |  | 0.4 | 1.0 | 0.3 | 8 | 128 | 128 | 32 | 32/64 | 32/64 |  | MIC Pseudomonas aeruginosa 8 [9, 13]: 64/128
11 | RLKRMRKRLKRKLRLWHRKRYK-NH2 [SRP-8] | 16/32 | 16/64 | 16 | 1.7 | 0.9 | 0.4 | 8 | 64 | 128 | 32 |  | 16/32 | 64 | MIC Pseudomonas aeruginosa 6 ([3]; 6 (clinical strain)): 16 µg/mL
